The source of these data is patent US9636347B2, “Sustained release formulations for the treatment of intraocular pressure or glaucoma” (Icon Bioscience, Inc., priority 2013, dated 2017).

Series [1] in a line: Solubility of latanoprost. It is filed as physicochemical. Particulars: 1%, 2% or 4% (w/w %) formulations, clear solution. From the text: Latanoprost and other prostaglandin analogs are available commercially, for example, from Cayman Chemical (Ann Arbor, Mich.).
Liquid formulations of latanoprost and benzyl benzoate were made by weighing each component and mixing them together. Latanoprost is soluble in benzyl benzoate, yielding a clear solution. The formulations were either 1%, 2%, or 4% (w/w %) latanoprost.

For series [2] the following is noted: cited from earlier work.

For the compound `CC(C)OC(=O)CCC/C=C\C[C@@H]1[C@@H](CC[C@@H](O)CCc2ccccc2)[C@H](O)C[C@@H]1O` [Latanoprost, isopropyl-(Z)7[(1R,2R,3R,5S)3,5-dihydroxy-2-[(3R)-3-hydroxy-5-phenylpentyl]cyclopentyl]-5-heptenoate], the “solubility in benzyl benzoate” value in series [1] is recorded as “soluble”. In series [2] (acetone, ethanol, ethyl acetate, isopropanol, methanol, octanol), the “solubility in acetone, ethanol, ethyl acetate, isopropanol, methanol, and octanol” value is listed as “freely soluble”. Also, the solubility in acetonitrile entry in series [2] (acetonitrile) was “very soluble”. In series [2] (water), the solubility in water entry was “practically insoluble”.
